For series [1], the system named is M. tuberculosis H37Rv (London Pride). As to the kind of experiment: microbe, parasite or virus in culture. Conditions: for activity against M. tuberculosis (in words): SAR discussion. The format is cell-based, Mycobacterium tuberculosis.
The subject of a further series is Vero cells. Conditions: for cytotoxicity (in words): Vero cells.
Where [2] appears, read: Mycobacterium tuberculosis, H37RV, 120 h.
Where [3] appears, read: Mycobacterium tuberculosis, H37RV.

Values after ≈ are worked out from the molar mass of the structure shown. Read-outs that look alike come from different tables or passages of the source.

As to “3-Isobutoxy-N-(5-nitrothiazol-2-yl)picolinamide [compound 22]”, the “MIC” value in series [1] (Table 1, […], average ± SD of two independent experiments) is 16 ± 6.4 µM. Besides, in the series on Vero cells, the “TC50” value was 8.9 µM.
Turning to `Nc1ccccc1C(=O)Nc1ncc([N+](=O)[O-])s1` [compound 5, 2-Amino-N-(5-nitrothiazol-2-yl)benzamide], the MIC in series [1] (setting [2]) is greater than 20 µM. The “activity against M. tuberculosis (in words)” value (“activity … (in words)” for short) in series [1] is listed as “no activity”. The “TC50” value with Vero cells (African green monkey) turned out to be 31 µM.
In series [1] (setting [2]), `CNc1ccccc1C(=O)Nc1ncc([N+](=O)[O-])s1` [compound 6, 2-(Methylamino)-N-(5-nitrothiazol-2-yl)benzamide] displayed an MIC greater than 20 µM. The “activity … (in words)” value in series [1] was “no activity”. In addition, the “TC50” value in the series on Vero cells (African green monkey) came out at 15 µM.
Consider `CC(=O)Nc1ccccc1C(=O)Nc1ncc([N+](=O)[O-])s1` [compound 7, 2-Acetamido-N-(5-nitrothiazol-2-yl)benzamide], for which the MIC in series [1] (setting [2]) is greater than 20 µM. In addition, in series [1], the “activity … (in words)” value is on record as “no activity”.
As for `CCC(C)(C)C(=O)Nc1ccccc1C(=O)Nc1ncc([N+](=O)[O-])s1` [compound 9, 2-(2,2-Dimethylbutanamido)-N-(5-nitrothiazol-2-yl)benzamide], in series [1] (setting [2]), the MIC is 17 ± 4.9 µM (≈ 6.16 µg/mL). Also, the “activity … (in words)” value in series [1] is “showed activity”. Further, the “TC50” value in the series on Vero cells (African green monkey) was found to be 4.1 µM.
In the case of `CC(C)(C)OC(=O)Nc1ccccc1C(=O)Nc1ncc([N+](=O)[O-])s1` [compound 10, tert-Butyl (2-((5-nitrothiazol-2-yl)carbamoyl)phenyl)carbamate], in series [1] (setting [2]), the MIC is 17 ± 4.2 µM (≈ 6.19 µg/mL). Moreover, in series [1], the “activity … (in words)” value was “showed activity”. For the same compound, the “TC50” value in the series with Vero cells (African green monkey) turned out to be 6.6 µM.
As for `O=C(Nc1ncc([N+](=O)[O-])s1)c1cc(F)ccc1O` [compound 11, 5-Fluoro-2-hydroxy-N-(5-nitrothiazol-2-yl)benzamide], in series [1] (setting [2]), the MIC is greater than 20 µM. Besides, the “activity … (in words)” value in series [1] is “no activity”.
Consider `CCC(C)(C)C(=O)Oc1cc(N2CCOCC2)ccc1C(=O)Nc1ncc([N+](=O)[O-])s1` [compound 14, 5-Morpholino-2-((5-nitrothiazol-2-yl)carbamoyl)phenyl 2,2-dimethylbutanoate], for which the MIC in series [1] (setting [2]) was greater than 20 µM. Also, the “activity … (in words)” value in series [1] was “no activity”. Besides, the “TC50” value in the series with Vero cells (African green monkey) came out at 12 µM.
In turn, `O=C(Nc1ncc([N+](=O)[O-])s1)c1cc(O)ccc1O` [compound 15, 2,5-Dihydroxy-N-(5-nitrothiazol-2-yl)benzamide] had an MIC in series [1] (setting [2]) greater than 20 µM. Moreover, in series [1], the “activity … (in words)” value is listed as “no activity”. Also, in the series with Vero cells (African green monkey), the “TC50” value came to 13 µM.
In series [1] (setting [2]), `O=C(O)c1ccccc1C(=O)Nc1ncc([N+](=O)[O-])s1` [compound 16, 2-((5-Nitrothiazol-2-yl)carbamoyl)benzoic Acid] registered an MIC greater than 20 µM. The “activity … (in words)” value in series [1] is listed as “no activity”. The “TC50” value with Vero cells (African green monkey) is greater than 50 µM.
Turning to `COc1ccccc1C(=O)Nc1ncc([N+](=O)[O-])s1` [compound 17, 2-Methoxy-N-(5-nitrothiazol-2-yl)benzamide], the MIC in series [1] (setting [2]) is greater than 20 µM. Further, the “activity … (in words)” value in series [1] is reported as “no activity”.
As for `CCC(C)(C)C(=O)Nc1cccnc1C(=O)Nc1ncc([N+](=O)[O-])s1` [compound 18, 3-(2,2-Dimethylbutanamido)-N-(5-nitrothiazol-2-yl)picolinamide], in series [1], the “improvement in activity relative to 1” value came out at 10 fold and the “activity … (in words)” value is “showed activity”. In addition, in series [1] (setting [2]), the MIC was determined as 1.4 ± 0.6 µM (≈ 0.509 µg/mL). Further, the “TC50” value in the series on Vero cells (African green monkey) was 0.9 µM.
For `COc1ccnc(C(=O)Nc2ncc([N+](=O)[O-])s2)c1` [compound 20, 4-Methoxy-N-(5-nitrothiazol-2-yl)picolinamide], the MIC in series [1] (setting [2]) came out at 5.6 ± 4.2 µM (≈ 1.57 µg/mL). In addition, in the series with Vero cells (African green monkey), the “TC50” value came to 11 µM.
For the compound `COc1ccc(C(=O)Nc2ncc([N+](=O)[O-])s2)nc1` [compound 21, 5-Methoxy-N-(5-nitrothiazol-2-yl)picolinamide], in series [1] (setting [2]), the MIC was 5.5 ± 2.1 µM (≈ 1.54 µg/mL). For the same compound, in the series on Vero cells (African green monkey), the “TC50” value amounted to 4.3 µM.
Regarding `CCC(C)(C)C(=O)Oc1cccnc1C(=O)Nc1ncc([N+](=O)[O-])s1` [compound 23, 2-((5-Nitrothiazol-2-yl)carbamoyl)pyridin-3-yl 2,2-dimethylbutanoate], in series [1] (setting [2]), the MIC came to 12 ± 1 µM (≈ 4.37 µg/mL). Further, the “TC50” value in the series on Vero cells (African green monkey) amounted to 21 µM.
`COc1cccnc1C(=O)Nc1ncc([N+](=O)[O-])s1` [compound 24, 3-Methoxy-N-(5-nitrothiazol-2-yl)picolinamide]: the MIC in series [1] (setting [2]) was greater than 20 µM. The “activity … (in words)” value in series [1] is “inactive”. In addition, the “TC50” value with Vero cells (African green monkey) was found to be 37 µM.
`O=C(Nc1ncc([N+](=O)[O-])s1)c1ccc(N2CCOCC2)cn1` [compound 25, 5-Morpholino-N-(5-nitrothiazol-2-yl)picolinamide] showed an MIC in series [1] (setting [2]) greater than 20 µM. In addition, the “activity … (in words)” value in series [1] was “inactive”. The “TC50” value in the series with Vero cells (African green monkey) was determined as 11 µM.
The compound `CC(=O)Nc1ncc([N+](=O)[O-])s1` [compound 26, N-(5-Nitrothiazol-2-yl)acetamide] showed an MIC in series [1] (setting [3]) greater than 20 µM. In addition, the “activity … (in words)” value in series [1] was “loss of activity”.
For `O=C(Nc1ncc([N+](=O)[O-])s1)C1CC1` [compound 27, N-(5-nitrothiazol-2-yl)cyclopropanecarboxamide], the MIC in series [1] (setting [3]) is greater than 20 µM. Also, in series [1], the “activity … (in words)” value is “loss of activity”.
`O=C(Nc1ncc([N+](=O)[O-])s1)C1CCCCC1O` (stereo not drawn) [compound 29, 2-Hydroxy-N-(5-nitrothiazol-2-yl)cyclohexane-1-carboxamide] showed an MIC in series [1] (setting [3]) greater than 20 µM.
Take `O=C(Nc1ncc([N+](=O)[O-])s1)c1ccncn1` [compound 30, N-(5-Nitrothiazol-2-yl)pyrimidine-4-carboxamide]: the MIC in series [1] (setting [3]) is greater than 20 µM. Moreover, the “activity … (in words)” value in series [1] is “loss of activity”.
In series [1] (setting [3]), `O=C(Nc1ncc([N+](=O)[O-])s1)N1CCCCC1` [compound 31, N-(5-Nitrothiazol-2-yl)piperidine-1-carboxamide] registered an MIC greater than 20 µM.
On to `O=C(Nc1ncc([N+](=O)[O-])s1)c1cnccn1` [compound 32, N-(5-Nitrothiazol-2-yl)pyrazine-2-carboxamide], for which the MIC in series [1] (setting [3]) was greater than 20 µM.
In the case of `O=C(Nc1ncc([N+](=O)[O-])s1)c1nccs1` [compound 33, N-(5-Nitrothiazol-2-yl)thiazole-2-carboxamide], the MIC in series [1] (setting [3]) was greater than 20 µM.
In series [1] (setting [3]), `O=C(Nc1ncc([N+](=O)[O-])s1)c1cccnc1` [compound 34, N-(5-Nitrothiazol-2-yl)nicotinamide] had an MIC greater than 20 µM.
The compound `O=C(Nc1ncc([N+](=O)[O-])s1)c1ccncc1` [compound 35, N-(5-Nitrothiazol-2-yl)isonicotinamide] showed an MIC in series [1] (setting [3]) greater than 20 µM.
Same read-out and setting: in the case of `O=C(Nc1ncc([N+](=O)[O-])s1)NC1CCCCC1` [compound 38, 1-Cyclohexyl-3-(5-nitrothiazol-2-yl)urea] it was greater than 20 µM.
`O=C(Nc1ccccn1)Nc1ncc([N+](=O)[O-])s1` [compound 39, 1-(5-Nitrothiazol-2-yl)-3-(pyridin-2-yl)urea]: the MIC in series [1] (setting [3]) is greater than 20 µM.
On to `Cn1ccnc1C(=O)Nc1ncc([N+](=O)[O-])s1` [compound 40, 1-Methyl-N-(5-nitrothiazol-2-yl)-1H-imidazole-2-carboxamide], for which, in series [1] (setting [3]), the MIC was greater than 20 µM.
In the case of `O=C(Nc1ncc([N+](=O)[O-])s1)c1ncco1` [compound 41, N-(5-Nitrothiazol-2-yl)oxazole-2-carboxamide], the MIC in series [1] (setting [3]) was greater than 20 µM.
In the case of `O=C(Nc1ncc([N+](=O)[O-])s1)c1ccon1` [compound 42, N-(5-Nitrothiazol-2-yl)isoxazole-3-carboxamide], in series [1] (setting [3]), the MIC was greater than 20 µM.
Take `Cc1cnc(C(=O)Nc2ncc([N+](=O)[O-])s2)s1` [compound 43, 5-Methyl-N-(5-nitrothiazol-2-yl)thiazole-2-carboxamide]: the MIC in series [1] (setting [3]) was greater than 20 µM.
As to `O=C(Nc1ncc([N+](=O)[O-])s1)c1nc2ccccc2s1` [compound 44, N-(5-Nitrothiazol-2-yl)benzo[d]thiazole-2-carboxamide], in series [1] (setting [3]), the MIC is greater than 20 µM.
Turning to `CC(=O)Oc1ccccc1C(=O)Nc1nccs1` [compound 45, 2-(Thiazol-2-ylcarbamoyl)phenyl Acetate], the MIC in series [1] (setting [3]) was greater than 20 µM. For the same compound, the “activity … (in words)” value in series [1] is reported as “eliminated all activity”. In addition, the “TC50” value in the series with Vero cells (African green monkey) was greater than 50 µM.
In the case of `Cc1nc(NC(=O)c2ccccc2O)sc1[N+](=O)[O-]` [compound 46, 2-Hydroxy-N-(4-methyl-5-nitrothiazol-2-yl)benzamide], the MIC in series [1] (setting [3]) is greater than 20 µM. Besides, in series [1], the “activity … (in words)” value was “inactive”. The “TC50” value in the series with Vero cells (African green monkey) came out at 5.2 µM.
Consider `Cc1cnc(NC(=O)c2ccccn2)s1` [compound 48, N-(5-Methylthiazol-2-yl)picolinamide], for which the MIC in series [1] (setting [3]) was greater than 20 µM. In series [1], the “activity … (in words)” value was “inactive”. Further, the “TC50” value in the series with Vero cells (African green monkey) is 12 µM.
Regarding `O=C(Nc1ncc(C(F)(F)F)s1)c1ccccn1` [compound 49, N-(5-(Trifluoromethyl)thiazol-2-yl)picolinamide], in series [1] (setting [3]), the MIC was 5.3 ± 0.2 µM (≈ 1.45 µg/mL). The “activity … (in words)” value in series [1] is on record as “some activity”. Further, the “TC50” value with Vero cells (African green monkey) was determined as 0.8 µM. Besides, in the series with Vero cells, the “cytotoxicity (in words)” value is “cytotoxicity”.
`Cc1nc(NC(=O)c2ccccn2)sc1[N+](=O)[O-]` [compound 50, N-(4-Methyl-5-nitrothiazol-2-yl)picolinamide] came in with an MIC in series [1] (setting [3]) of 1.5 ± 0.6 µM (≈ 0.396 µg/mL). Also, the “activity … (in words)” value in series [1] is “some activity”. Further, in the series on Vero cells (African green monkey), the “TC50” value was 4.2 µM. Besides, the “cytotoxicity (in words)” value in the series on Vero cells is reported as “cytotoxicity”.
Regarding `O=[N+]([O-])c1cnc(NS(=O)(=O)c2ccccc2O)s1` [compound 54, 2-Hydroxy-N-(5-nitrothiazol-2-yl)benzenesulfonamide], the “activity … (in words)” value in series [1] was “inactive”.
The same measure, in the same setting: next, `O=[N+]([O-])c1cnc(NCc2ccccc2O)s1` [compound 55, 2-(((5-Nitrothiazol-2-yl)amino)methyl)phenol]: “inactive”.
Still for that read-out and setting: in the case of `O=[N+]([O-])c1cnc(NCc2ccccn2)s1` [compound 56, 5-Nitro-N-(pyridin-2-ylmethyl)thiazol-2-amine] it was “inactive”.

(Values after paper PMC6044914 (ACS Omega, 2017).)
